Assay results from ChEMBL document CHEMBL1201862, “PubChem BioAssay data set” (2004).
“And” between values parts separate entries of the source, which are not always exact repeats. Identical values can stand only once.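 Five compound concentrations were applied to cells in 96-well plates for 48 hours; endpoints were derived by simple linear interpolation of the resulting dose-response curve. GI50 is the concentration that inhibits growth by half.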 The source made the active and inactive calls. No stated cut-off is given here; in the data, active = GI50 up to about 1.1 µM and inactive = higher.

Columns and labels:
Experiment in all cases: DTP human tumour cell line panel, 48 h
SF-295 = system: SF-295
SK-MEL-5 = system: SK-MEL-5
SNB-75 = system: SNB-75
ACHN = system: ACHN
SK-MEL-2 = system: SK-MEL-2
M14 = system: M14
HCT-15 = system: HCT-15
OVCAR-8 = system: OVCAR-8
786-0 = system: 786-0
LOX IMVI = system: LOX IMVI
TK-10 = system: TK-10
HT-29 = system: HT-29
MOLT-4 = system: MOLT-4
SNB-19 = system: SNB-19
U-251 = system: U-251
SK-MEL-28 = system: SK-MEL-28
OVCAR-3 = system: OVCAR-3
SK-OV-3 = system: SK-OV-3
DU-145 = system: DU-145
RXF 393 = system: RXF 393
Hs-578T = system: Hs-578T
SF-268 = system: SF-268
MDA-MB-231 = system: MDA-MB-231
PC-3 = system: PC-3
COLO 205 = system: COLO 205
OVCAR-4 = system: OVCAR-4
UACC-257 = system: UACC-257
HCT-116 = system: HCT-116
NCI-H460 = system: NCI-H460
OVCAR-5 = system: OVCAR-5
NCI-H522 = system: NCI-H522
NCI-H226 = system: NCI-H226
HCC 2998 = system: HCC 2998
MDA-MB-435 = system: MDA-MB-435
HOP-62 = system: HOP-62
T47D = system: T47D
IGROV-1 = system: IGROV-1
A549 = system: A549
EKVX = system: EKVX
A498 = system: A498
CCRF-CEM = system: CCRF-CEM
UO-31 = system: UO-31
HL-60 = system: HL-60
HOP-92 = system: HOP-92
KM12 = system: KM12
UACC-62 = system: UACC-62
NCI/ADR-RES = system: NCI/ADR-RES
NCI-H23 = system: NCI-H23
MCF7 = system: MCF7
Malme-3M = system: Malme-3M
RPMI-8226 = system: RPMI-8226
SF-539 = system: SF-539
SR = system: SR
SW-620 = system: SW-620
BT-549 = system: BT-549
MDA-N = system: MDA-N
CAKI-1 = system: CAKI-1
K562 = system: K562
SN12C = system: SN12C

Measured: GI50

COC(=O)c1cc2c3c(ccc2[nH]1)N(C(=O)c1cc2cc(OC)c(OC)c(OC)c2[nH]1)CC3CCl (stereo not drawn)
active: SR 1.1 µM
5.71 µM: HCT-15
inactive: SF-295 7.78 µM | SK-MEL-5 2.23 µM | SNB-75 > 100 µM | ACHN 5.62 µM | SK-MEL-2 > 100 µM | M14 > 27.5 µM | OVCAR-8 12.6 µM | 786-0 3.79 µM | LOX IMVI 4.98 µM | TK-10 > 54.2 µM | HT-29 8.55 µM | MOLT-4 1.57 µM | SNB-19 > 100 µM | U-251 6.58 µM | SK-MEL-28 > 24.1 µM | OVCAR-3 > 24.4 µM | SK-OV-3 > 100 µM | DU-145 6.44 µM | RXF 393 5.51 µM | Hs-578T 8.45 µM | SF-268 > 100 µM | MDA-MB-231 > 100 µM | PC-3 4.31 µM | COLO 205 2.66 µM | OVCAR-4 8.34 µM | UACC-257 81.5 µM | HCT-116 4.46 µM | NCI-H460 2.79 µM | OVCAR-5 > 100 µM | NCI-H522 2.9 µM | NCI-H226 14.3 µM | HCC 2998 > 100 µM | MDA-MB-435 13.7 µM | HOP-62 > 21.8 µM | T47D > 100 µM | IGROV-1 7.87 µM | A549 5.37 µM | EKVX > 100 µM | A498 42.5 µM | CCRF-CEM 5.98 µM | UO-31 7.59 µM | HL-60 1.48 µM | HOP-92 > 100 µM | KM12 6.4 µM | UACC-62 4.54 µM | NCI/ADR-RES 12.2 µM | NCI-H23 5.56 µM | MCF7 3.94 µM | Malme-3M 8.59 µM | RPMI-8226 1.69 µM | SF-539 > 34.8 µM | SW-620 5.48 µM | BT-549 3.51 µM

O/N=C/C1C(OCc2ccccc2)C(OCc2ccccc2)C(OCc2ccccc2)CN1Cc1ccccc1 (stereo not drawn)
inactive: SF-295 6.15 µM and 10.7 µM | MDA-N 16 µM and 12.4 µM | SK-MEL-5 11.7 µM | SK-MEL-2 19.6 µM | OVCAR-8 16 µM and 13.1 µM | 786-0 8.99 µM and 5.94 µM | LOX IMVI 10.6 µM and 6 µM | MOLT-4 2.77 µM and 1.52 µM | SNB-19 29.4 µM and 38.8 µM | U-251 9.16 µM and 15.5 µM | SK-MEL-28 14.3 µM and 15.2 µM | DU-145 35.2 µM and 60.4 µM | RXF 393 3.51 µM | SF-268 16.7 µM and > 10 µM | MDA-MB-231 4.15 µM | OVCAR-4 6.41 µM | HCT-116 3.89 µM and 4.97 µM | NCI-H522 9.55 µM | HCC 2998 7.48 µM | T47D 5.26 µM | CAKI-1 2.74 µM | IGROV-1 22.1 µM and 34 µM | A549 4.44 µM and 7.87 µM | EKVX 41.2 µM | A498 5.2 µM | CCRF-CEM 3.37 µM and 3.65 µM | HL-60 13.1 µM | K562 3.82 µM and 4.53 µM | UACC-62 13.9 µM and 18.7 µM | RPMI-8226 22.6 µM | SF-539 7.26 µM | SW-620 5.41 µM and 10.2 µM | BT-549 15.3 µM

Cc1cccc(-c2nc(-c3cnccn3)n(Cc3ccccc3)n2)c1
inactive: SF-295 50.8 µM | MDA-N > 100 µM | SK-MEL-5 > 100 µM | M14 > 100 µM | OVCAR-8 99.1 µM | 786-0 52.7 µM | LOX IMVI > 100 µM | HT-29 > 100 µM | MOLT-4 > 100 µM | SNB-19 95.1 µM | U-251 > 100 µM | SK-MEL-28 68.5 µM | OVCAR-3 > 100 µM | SK-OV-3 65.6 µM | DU-145 > 100 µM | RXF 393 29.6 µM | SF-268 > 100 µM | MDA-MB-231 > 100 µM | PC-3 > 100 µM | COLO 205 > 100 µM | OVCAR-4 27.2 µM | UACC-257 > 100 µM | HCT-116 > 100 µM | NCI-H460 > 100 µM | OVCAR-5 > 100 µM | NCI-H522 > 100 µM | HCC 2998 > 100 µM | MDA-MB-435 > 100 µM | HOP-62 35.1 µM | T47D 90.6 µM | IGROV-1 > 100 µM | A549 > 100 µM | CCRF-CEM > 100 µM | UO-31 > 100 µM | HL-60 > 100 µM | HOP-92 34 µM | KM12 > 100 µM | K562 > 100 µM | UACC-62 70.8 µM | SN12C > 100 µM | NCI/ADR-RES > 100 µM | NCI-H23 > 100 µM | MCF7 > 100 µM | RPMI-8226 > 100 µM | SF-539 > 100 µM | SR > 100 µM | SW-620 > 100 µM | BT-549 > 100 µM
active: SNB-75 < 0.01 µM
> 100 µM: HCT-15
